From patent US10844077B2, “Thiazolyl-containing compounds for treating proliferative diseases” (Dana-Farber Cancer Institute, Inc., priority 2014, dated 2020)
“And” between values parts separate entries of the source, which are not always exact repeats. Equal values may be shown once.

Assays:
Assay in all cases: KINATIV assay
Type in all cases: cell-based
Conditions in all cases: 1 μM, 90 minutes, BCWM.1 cells
AKT1 = AKT1 (Homo sapiens (Human), UniProt P31749)
Protocol: (§1) The cells were harvested and lysed. The lysates were directly labeled with an ATP-biotin probe. Bound kinases were identified and quantitated by ACTIVX as described in Patricelli et al., Biochemistry, 2007, 46(2): 350-358. The compounds were tested in duplicates against duplicate or quadruplicate control samples.

AMPKa1 = AMPKa1 (Homo sapiens (Human), UniProt Q13131)
Chain of AMPKa1 (Q13131 whole entry): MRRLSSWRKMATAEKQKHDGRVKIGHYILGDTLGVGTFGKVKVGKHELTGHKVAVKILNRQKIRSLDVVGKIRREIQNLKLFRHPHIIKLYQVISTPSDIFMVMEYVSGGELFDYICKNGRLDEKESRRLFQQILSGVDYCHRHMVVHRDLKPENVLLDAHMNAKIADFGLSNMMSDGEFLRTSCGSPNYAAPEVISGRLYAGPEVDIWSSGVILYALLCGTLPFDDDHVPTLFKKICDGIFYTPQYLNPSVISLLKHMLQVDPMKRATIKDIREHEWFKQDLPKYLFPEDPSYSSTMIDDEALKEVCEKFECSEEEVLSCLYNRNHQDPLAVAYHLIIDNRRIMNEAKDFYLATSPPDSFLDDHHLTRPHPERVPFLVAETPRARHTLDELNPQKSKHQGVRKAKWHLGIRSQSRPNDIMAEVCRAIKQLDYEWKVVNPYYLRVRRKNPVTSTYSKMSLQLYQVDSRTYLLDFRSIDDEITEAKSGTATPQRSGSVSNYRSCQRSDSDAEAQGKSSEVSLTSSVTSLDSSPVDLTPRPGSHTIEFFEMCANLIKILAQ
Chain of AMPKa1 (Q9Y478 whole entry partner): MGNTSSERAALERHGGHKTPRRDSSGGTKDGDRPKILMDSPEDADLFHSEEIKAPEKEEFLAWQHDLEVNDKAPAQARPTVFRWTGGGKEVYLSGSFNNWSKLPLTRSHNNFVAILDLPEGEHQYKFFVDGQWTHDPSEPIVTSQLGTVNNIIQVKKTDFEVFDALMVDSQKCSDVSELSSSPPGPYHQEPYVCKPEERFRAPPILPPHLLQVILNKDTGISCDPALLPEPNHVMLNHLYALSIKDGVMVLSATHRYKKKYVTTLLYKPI
Chain of AMPKa1 (P54619 whole entry partner): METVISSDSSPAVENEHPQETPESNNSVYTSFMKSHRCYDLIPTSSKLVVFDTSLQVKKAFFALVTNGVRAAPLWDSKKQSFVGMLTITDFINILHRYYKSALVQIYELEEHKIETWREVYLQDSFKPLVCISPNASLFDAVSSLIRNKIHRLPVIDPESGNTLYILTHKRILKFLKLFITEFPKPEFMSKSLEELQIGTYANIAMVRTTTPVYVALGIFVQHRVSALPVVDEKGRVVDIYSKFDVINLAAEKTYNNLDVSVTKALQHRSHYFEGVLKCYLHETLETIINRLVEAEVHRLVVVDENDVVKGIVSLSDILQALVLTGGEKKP
Protocol: as §1

BLK = BLK (Homo sapiens (Human), UniProt P51451)
Protocol: as §1

BRAF = BRAF (Homo sapiens (Human), UniProt P15056)
Protocol: as §1

BTK = BTK (Homo sapiens (Human), UniProt Q06187)
Protocol: as §1

CASK = CASK (Homo sapiens (Human), UniProt O14936)
Protocol: as §1

CK1a = CK1a (Homo sapiens (Human), UniProt P48729)
Protocol: as §1

CK2a1 = CK2a1 (Homo sapiens (Human), UniProt P68400)
Protocol: as §1

CSK = CSK (Homo sapiens (Human), UniProt P41240)
Protocol: as §1

CaMK2d = CaMK2d (Homo sapiens (Human), UniProt Q13557)
Protocol: as §1

EphB2 = EphB2 (Homo sapiens (Human), UniProt P29323)
Protocol: as §1

Erk1 = Erk1 (Homo sapiens (Human), UniProt P27361)
Protocol: as §1

Erk2 = Erk2 (Homo sapiens (Human), UniProt P28482)
Protocol: as §1

Erk5 = Erk5 (Homo sapiens (Human), UniProt Q13164)
Protocol: as §1

FES = FES (Homo sapiens (Human), UniProt P07332)
Chain of FES (P07332 whole entry): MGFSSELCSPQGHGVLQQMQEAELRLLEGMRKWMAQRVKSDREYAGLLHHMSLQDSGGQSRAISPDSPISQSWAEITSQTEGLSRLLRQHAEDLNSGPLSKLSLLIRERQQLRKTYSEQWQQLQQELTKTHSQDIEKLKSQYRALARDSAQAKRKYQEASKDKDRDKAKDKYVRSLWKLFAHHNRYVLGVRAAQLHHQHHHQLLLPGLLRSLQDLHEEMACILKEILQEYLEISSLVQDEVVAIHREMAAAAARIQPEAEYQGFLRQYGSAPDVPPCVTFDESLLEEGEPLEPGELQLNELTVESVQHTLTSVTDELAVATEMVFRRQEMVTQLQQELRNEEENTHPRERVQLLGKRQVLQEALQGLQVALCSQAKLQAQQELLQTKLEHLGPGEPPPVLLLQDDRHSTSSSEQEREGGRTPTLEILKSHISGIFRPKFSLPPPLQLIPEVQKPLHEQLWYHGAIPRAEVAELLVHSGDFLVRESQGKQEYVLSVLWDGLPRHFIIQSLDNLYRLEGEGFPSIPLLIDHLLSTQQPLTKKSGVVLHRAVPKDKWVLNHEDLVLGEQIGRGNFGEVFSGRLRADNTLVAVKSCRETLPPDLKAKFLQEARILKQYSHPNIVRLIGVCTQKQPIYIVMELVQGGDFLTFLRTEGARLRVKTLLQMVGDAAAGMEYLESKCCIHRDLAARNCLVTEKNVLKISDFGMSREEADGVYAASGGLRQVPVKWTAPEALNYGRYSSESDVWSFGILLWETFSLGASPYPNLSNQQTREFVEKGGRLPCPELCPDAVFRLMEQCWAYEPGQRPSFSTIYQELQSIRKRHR
Protocol: as §1

FGR = FGR (Homo sapiens (Human), UniProt P09769)
Protocol: as §1

ITPK1 = ITPK1 (Homo sapiens (Human), UniProt Q13572)
Protocol: as §1

JAK1 = JAK1 (Homo sapiens (Human), UniProt P23458)
Protocol: as §1

MAP3K3 = MAP3K3 (Homo sapiens (Human), UniProt Q99759)
Protocol: as §1

MAP3K6 = MAP3K6 (Homo sapiens (Human), UniProt O95382)
Protocol: as §1

MARK3 = MARK3 (Homo sapiens (Human), UniProt P27448)
Protocol: as §1

MSK1, MSK2 domain1 = tested on: MSK1, MSK2 domain1
Protocol: as §1

MSK2 domain1 = MSK2 domain1 (Homo sapiens (Human), UniProt O75676)
Protocol: as §1

MYO3A, MYO3B = tested on: MYO3A, MYO3B
Protocol: as §1

NEK4 = NEK4 (Homo sapiens (Human), UniProt P51957)
Protocol: as §1

NEK6, NEK7 = tested on: NEK6, NEK7
Protocol: as §1

PEK = PEK (Homo sapiens (Human), UniProt Q9NZJ5)
Protocol: as §1

PI4KB = PI4KB (Homo sapiens (Human), UniProt Q9UBF8)
Protocol: as §1

PIP5K3 = PIP5K3 (Homo sapiens (Human), UniProt Q9Y2I7)
Protocol: as §1

PKD2 = PKD2 (Homo sapiens (Human), UniProt Q9BZL6)
Protocol: as §1

PKN1 = PKN1 (Homo sapiens (Human), UniProt Q16512)
Chain of PKN1 (Q16512 whole entry): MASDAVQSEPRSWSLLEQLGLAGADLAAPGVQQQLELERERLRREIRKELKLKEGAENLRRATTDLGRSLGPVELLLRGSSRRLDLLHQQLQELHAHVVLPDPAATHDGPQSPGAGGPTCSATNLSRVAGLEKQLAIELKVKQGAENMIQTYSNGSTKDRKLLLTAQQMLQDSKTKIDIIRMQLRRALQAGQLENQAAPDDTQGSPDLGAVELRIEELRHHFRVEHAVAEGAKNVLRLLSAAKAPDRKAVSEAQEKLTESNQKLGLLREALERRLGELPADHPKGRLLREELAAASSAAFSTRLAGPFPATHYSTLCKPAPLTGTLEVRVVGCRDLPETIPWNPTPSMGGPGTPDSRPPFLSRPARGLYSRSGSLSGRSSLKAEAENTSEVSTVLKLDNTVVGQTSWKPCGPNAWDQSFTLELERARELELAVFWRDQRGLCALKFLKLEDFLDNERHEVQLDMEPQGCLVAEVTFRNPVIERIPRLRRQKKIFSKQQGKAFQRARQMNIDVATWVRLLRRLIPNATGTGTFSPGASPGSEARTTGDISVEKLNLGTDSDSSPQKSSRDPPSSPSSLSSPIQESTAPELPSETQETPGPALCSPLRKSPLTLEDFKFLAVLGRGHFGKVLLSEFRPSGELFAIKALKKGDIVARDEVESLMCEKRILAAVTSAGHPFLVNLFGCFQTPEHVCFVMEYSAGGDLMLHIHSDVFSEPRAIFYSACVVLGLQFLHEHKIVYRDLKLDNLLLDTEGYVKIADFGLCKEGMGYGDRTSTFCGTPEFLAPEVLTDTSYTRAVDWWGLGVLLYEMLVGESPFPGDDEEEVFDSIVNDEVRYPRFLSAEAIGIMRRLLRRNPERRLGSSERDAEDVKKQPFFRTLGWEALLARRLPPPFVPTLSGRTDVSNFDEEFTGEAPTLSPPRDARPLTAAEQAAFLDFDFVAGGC
Protocol: as §1

RSK1, RSK2, RSK3 domain1 = tested on: RSK1, RSK2, RSK3 domain1
Protocol: as §1

RSK2 domain2 = RSK2 domain2 (Homo sapiens (Human), UniProt P51812)
Chain of RSK2 domain2 (P51812 whole entry, the tested form may be a part): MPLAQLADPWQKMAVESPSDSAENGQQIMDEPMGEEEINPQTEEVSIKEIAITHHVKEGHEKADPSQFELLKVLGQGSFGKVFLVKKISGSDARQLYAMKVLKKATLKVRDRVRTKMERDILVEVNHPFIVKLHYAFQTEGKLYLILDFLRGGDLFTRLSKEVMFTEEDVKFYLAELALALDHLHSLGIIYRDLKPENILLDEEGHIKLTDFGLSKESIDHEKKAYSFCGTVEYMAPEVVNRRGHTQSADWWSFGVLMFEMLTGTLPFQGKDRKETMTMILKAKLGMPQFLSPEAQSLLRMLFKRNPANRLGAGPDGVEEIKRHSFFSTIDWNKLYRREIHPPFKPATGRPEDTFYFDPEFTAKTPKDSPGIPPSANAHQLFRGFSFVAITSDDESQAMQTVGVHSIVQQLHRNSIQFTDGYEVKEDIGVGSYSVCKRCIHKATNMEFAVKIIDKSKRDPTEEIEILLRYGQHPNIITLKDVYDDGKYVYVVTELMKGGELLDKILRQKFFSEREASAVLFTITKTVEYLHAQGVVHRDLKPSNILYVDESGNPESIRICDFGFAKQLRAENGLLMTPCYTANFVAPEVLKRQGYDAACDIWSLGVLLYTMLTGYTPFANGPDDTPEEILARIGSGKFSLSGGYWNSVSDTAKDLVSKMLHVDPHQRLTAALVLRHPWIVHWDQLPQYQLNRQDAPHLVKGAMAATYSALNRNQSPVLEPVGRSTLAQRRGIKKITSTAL
Protocol: as §1

RSKL1 = RSKL1 (Homo sapiens (Human), UniProt Q96S38)
Chain of RSKL1 (Q96S38 whole entry): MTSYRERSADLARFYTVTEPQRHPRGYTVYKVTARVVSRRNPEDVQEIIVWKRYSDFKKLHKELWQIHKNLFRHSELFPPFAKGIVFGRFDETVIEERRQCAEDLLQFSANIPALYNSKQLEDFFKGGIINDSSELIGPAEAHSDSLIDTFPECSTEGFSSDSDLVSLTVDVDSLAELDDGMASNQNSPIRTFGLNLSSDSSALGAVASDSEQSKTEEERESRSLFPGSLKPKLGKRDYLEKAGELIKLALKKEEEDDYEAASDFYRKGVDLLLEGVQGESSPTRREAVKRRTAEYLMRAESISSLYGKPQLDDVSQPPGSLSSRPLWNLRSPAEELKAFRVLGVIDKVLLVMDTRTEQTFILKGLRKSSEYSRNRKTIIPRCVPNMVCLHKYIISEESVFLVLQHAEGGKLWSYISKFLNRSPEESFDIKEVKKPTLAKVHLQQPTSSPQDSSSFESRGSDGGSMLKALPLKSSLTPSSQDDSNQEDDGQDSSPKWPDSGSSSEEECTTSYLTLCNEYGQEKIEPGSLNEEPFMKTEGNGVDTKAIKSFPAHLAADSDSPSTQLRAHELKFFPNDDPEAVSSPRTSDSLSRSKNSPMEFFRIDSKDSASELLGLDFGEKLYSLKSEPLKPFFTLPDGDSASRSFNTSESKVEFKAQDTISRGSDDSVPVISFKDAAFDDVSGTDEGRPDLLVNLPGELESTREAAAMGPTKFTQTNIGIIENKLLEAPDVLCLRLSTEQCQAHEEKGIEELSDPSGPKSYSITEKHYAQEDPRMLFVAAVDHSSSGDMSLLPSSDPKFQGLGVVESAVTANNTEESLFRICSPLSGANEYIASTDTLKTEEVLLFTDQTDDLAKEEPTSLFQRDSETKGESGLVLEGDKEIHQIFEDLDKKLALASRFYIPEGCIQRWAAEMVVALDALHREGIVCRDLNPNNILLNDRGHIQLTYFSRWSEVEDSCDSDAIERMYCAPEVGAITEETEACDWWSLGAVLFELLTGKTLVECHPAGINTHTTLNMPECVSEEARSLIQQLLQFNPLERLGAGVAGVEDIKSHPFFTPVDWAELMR
Protocol: as §1

SRC = SRC (Homo sapiens (Human), UniProt P12931)
Protocol: as §1

SRPK1 = SRPK1 (Homo sapiens (Human), UniProt Q96SB4)
Protocol: as §1

SRPK1, SRPK2 = tested on: SRPK1, SRPK2
Protocol: as §1

STK33 = STK33 (Homo sapiens (Human), UniProt Q9BYT3)
Protocol: as §1

TAK1 = TAK1 (Homo sapiens (Human), UniProt O43318)
Protocol: as §1

AMPKa1, AMPKa2 = tested on: AMPKa1, AMPKa2
Protocol: as §1

MAP2K6 = MAP2K6 (Homo sapiens (Human), UniProt P52564)
Protocol: as §1

Structure (SMILES): C=CC(=O)N1CCC(CNc2nccc(Nc3ncc(C(=O)Nc4c(C)cccc4C)s3)n2)C1 (racemic) [Example I-8]
- % change of MS signal compared to control sample (AKT1): −19.5%
- % change of MS signal compared to control sample (AMPKa1): −0.6%
- % change of MS signal compared to control sample (BLK): >95%
- % change of MS signal compared to control sample (BRAF): 11.1%
- % change of MS signal compared to control sample (BTK): 98.0% and >90%
- % change of MS signal compared to control sample (CASK): 43.0%
- % change of MS signal compared to control sample (CK1a): 14.9%
- % change of MS signal compared to control sample (CK2a1): 13.9%
- % change of MS signal compared to control sample (CSK): 88.1% and 86.2%
- % change of MS signal compared to control sample (CaMK2d): −22.3%
- % change of MS signal compared to control sample (EphB2): >90%
- % change of MS signal compared to control sample (Erk1): −19.7%
- % change of MS signal compared to control sample (Erk2): −0.1%
- % change of MS signal compared to control sample (Erk5): −11.4%
- % change of MS signal compared to control sample (FES): −13.3%
- % change of MS signal compared to control sample (FGR): 86.0%
- % change of MS signal compared to control sample (ITPK1): −16.4%
- % change of MS signal compared to control sample (JAK1): −1.9%
- % change of MS signal compared to control sample (MAP3K3): 7.9%
- % change of MS signal compared to control sample (MAP3K6): −8.1%
- % change of MS signal compared to control sample (MARK3): 7.8%
- % change of MS signal compared to control sample (MSK1, MSK2 domain1): −29.7%
- % change of MS signal compared to control sample (MSK2 domain1): −47.7%
- % change of MS signal compared to control sample (MYO3A, MYO3B): 23.1%
- % change of MS signal compared to control sample (NEK4): 15.2%
- % change of MS signal compared to control sample (NEK6, NEK7): −11.0%
- % change of MS signal compared to control sample (PEK): 3.3%
- % change of MS signal compared to control sample (PI4KB): 44.2% and 41.9%
- % change of MS signal compared to control sample (PIP5K3): 4.2%
- % change of MS signal compared to control sample (PKD2): 8.7%
- % change of MS signal compared to control sample (PKN1): 13.7%
- % change of MS signal compared to control sample (RSK1, RSK2, RSK3 domain1): −55.6%
- % change of MS signal compared to control sample (RSK2 domain2): −6.8%
- % change of MS signal compared to control sample (RSKL1): 35.0%
- % change of MS signal compared to control sample (SRC): >90%
- % change of MS signal compared to control sample (SRPK1): −19.5%
- % change of MS signal compared to control sample (SRPK1, SRPK2): 33.2%
- % change of MS signal compared to control sample (STK33): 29.8%
- % change of MS signal compared to control sample (TAK1): 9.7%

Structure (SMILES): C=CC(=O)N1CC[C@@H](Nc2nccc(Nc3ncc(C(=O)Nc4c(C)cccc4C)s3)n2)C1 [Example I-4]
- % change of MS signal compared to control sample (AKT1): −11.0%
- % change of MS signal compared to control sample (AMPKa1): 10.1%
- % change of MS signal compared to control sample (AMPKa1, AMPKa2): −40.3%
- % change of MS signal compared to control sample (BLK): >95%
- % change of MS signal compared to control sample (BRAF): 17.8%
- % change of MS signal compared to control sample (BTK): 97.0% and >90%
- % change of MS signal compared to control sample (CASK): 23.2%
- % change of MS signal compared to control sample (CK1a): −41.3%
- % change of MS signal compared to control sample (CK2a1): 24.6%
- % change of MS signal compared to control sample (CSK): 35.7%
- % change of MS signal compared to control sample (CaMK2d): −8.5%
- % change of MS signal compared to control sample (EphB2): >90%
- % change of MS signal compared to control sample (Erk1): −10.9%
- % change of MS signal compared to control sample (Erk2): −3.2%
- % change of MS signal compared to control sample (Erk5): −9.0%
- % change of MS signal compared to control sample (FES): −15.6%
- % change of MS signal compared to control sample (FGR): 87.0%
- % change of MS signal compared to control sample (ITPK1): 12.8%
- % change of MS signal compared to control sample (JAK1): −5.7%
- % change of MS signal compared to control sample (MAP2K6): −18.0% and −10.7%
- % change of MS signal compared to control sample (MAP3K3): −0.7%
- % change of MS signal compared to control sample (MAP3K6): 10.9%
- % change of MS signal compared to control sample (MARK3): 13.5%
- % change of MS signal compared to control sample (MSK1, MSK2 domain1): −28.9%
- % change of MS signal compared to control sample (MSK2 domain1): −9.6%
- % change of MS signal compared to control sample (MYO3A, MYO3B): 15.9%
- % change of MS signal compared to control sample (NEK4): 12.3%
- % change of MS signal compared to control sample (NEK6, NEK7): 3.7%
- % change of MS signal compared to control sample (PEK): −44.9%
- % change of MS signal compared to control sample (PI4KB): 20.0% and 16.7%
- % change of MS signal compared to control sample (PIP5K3): 14.5%
- % change of MS signal compared to control sample (PKD2): 12.9%
- % change of MS signal compared to control sample (PKN1): 17.4%
- % change of MS signal compared to control sample (RSK1, RSK2, RSK3 domain1): −44.0%
- % change of MS signal compared to control sample (RSK2 domain2): 13.8%
- % change of MS signal compared to control sample (RSKL1): 10.7%
- % change of MS signal compared to control sample (SRC): >90%
- % change of MS signal compared to control sample (SRPK1): −2.1%
- % change of MS signal compared to control sample (SRPK1, SRPK2): −14.7%
- % change of MS signal compared to control sample (STK33): −23.0%
- % change of MS signal compared to control sample (TAK1): 27.8%

Structure (SMILES): C=CC(=O)N1CCCCC(Nc2nccc(Nc3ncc(C(=O)Nc4c(C)cccc4C)s3)n2)C1 (stereo not shown) [Example I-7]
- % change of MS signal compared to control sample (AKT1): −16.4%
- % change of MS signal compared to control sample (AMPKa1): 2.7%
- % change of MS signal compared to control sample (AMPKa1, AMPKa2): −20.7% and −22.3%
- % change of MS signal compared to control sample (BLK): >95%
- % change of MS signal compared to control sample (BRAF): 21.7%
- % change of MS signal compared to control sample (BTK): 98.9% and >90%
- % change of MS signal compared to control sample (CASK): 37.7%
- % change of MS signal compared to control sample (CK1a): −0.7%
- % change of MS signal compared to control sample (CK2a1): 14.3%
- % change of MS signal compared to control sample (CSK): 76.5% and 75.7%
- % change of MS signal compared to control sample (CaMK2d): −22.5%
- % change of MS signal compared to control sample (EphB2): >90%
- % change of MS signal compared to control sample (Erk1): −23.1%
- % change of MS signal compared to control sample (Erk2): −4.7%
- % change of MS signal compared to control sample (Erk5): −13.8%
- % change of MS signal compared to control sample (FES): −20.9%
- % change of MS signal compared to control sample (FGR): 94.7%
- % change of MS signal compared to control sample (ITPK1): −17.5%
- % change of MS signal compared to control sample (JAK1): 7.5%
- % change of MS signal compared to control sample (MAP2K6): 5.9% and 2.5%
- % change of MS signal compared to control sample (MAP3K3): 42.8%
- % change of MS signal compared to control sample (MAP3K6): −21.3%
- % change of MS signal compared to control sample (MARK3): 12.7%
- % change of MS signal compared to control sample (MSK1, MSK2 domain1): −40.4%
- % change of MS signal compared to control sample (MSK2 domain1): −45.3%
- % change of MS signal compared to control sample (MYO3A, MYO3B): 17.2%
- % change of MS signal compared to control sample (NEK4): 7.9%
- % change of MS signal compared to control sample (NEK6, NEK7): −8.4%
- % change of MS signal compared to control sample (PEK): 2.6%
- % change of MS signal compared to control sample (PI4KB): 36.0% and 35.3%
- % change of MS signal compared to control sample (PIP5K3): 4.3%
- % change of MS signal compared to control sample (PKD2): 10.0%
- % change of MS signal compared to control sample (PKN1): 4.2%
- % change of MS signal compared to control sample (RSK1, RSK2, RSK3 domain1): −58.3%
- % change of MS signal compared to control sample (RSK2 domain2): −0.3%
- % change of MS signal compared to control sample (RSKL1): 29.7%
- % change of MS signal compared to control sample (SRC): >90%
- % change of MS signal compared to control sample (SRPK1): 1.2%
- % change of MS signal compared to control sample (SRPK1, SRPK2): 17.3%
- % change of MS signal compared to control sample (STK33): 21.1%
- % change of MS signal compared to control sample (TAK1): 14.5%
